From PMC9437101, “Curcumin-based-fluorescent probes targeting ALDH1A3 as a promising tool for glioblastoma precision surgery and early diagnosis” (Communications Biology, 2022)
Values joined by “and” are separate entries in the source; they are usually repeats but may differ in a detail not shown here. Identical values can stand only once.

Legend:
ALDH1A1 [1] = biological target: T1, ALDH1A1 (Homo sapiens, UniProt P00352); assay: Fluorescence signal change of probe with recombinant enzyme (cross reaction assay); format: binding; conditions: probe 10 μM; for probe fluorescence intensity (normalized): ALDH1A1 100 μM
T1 construct: E. coli BL21 (DE3) were transformed with the full-length expression vector of each isoform; His-tag; made in house; host or cells: E. coli BL21 (DE3)
T1 sequence (P00352 1-501): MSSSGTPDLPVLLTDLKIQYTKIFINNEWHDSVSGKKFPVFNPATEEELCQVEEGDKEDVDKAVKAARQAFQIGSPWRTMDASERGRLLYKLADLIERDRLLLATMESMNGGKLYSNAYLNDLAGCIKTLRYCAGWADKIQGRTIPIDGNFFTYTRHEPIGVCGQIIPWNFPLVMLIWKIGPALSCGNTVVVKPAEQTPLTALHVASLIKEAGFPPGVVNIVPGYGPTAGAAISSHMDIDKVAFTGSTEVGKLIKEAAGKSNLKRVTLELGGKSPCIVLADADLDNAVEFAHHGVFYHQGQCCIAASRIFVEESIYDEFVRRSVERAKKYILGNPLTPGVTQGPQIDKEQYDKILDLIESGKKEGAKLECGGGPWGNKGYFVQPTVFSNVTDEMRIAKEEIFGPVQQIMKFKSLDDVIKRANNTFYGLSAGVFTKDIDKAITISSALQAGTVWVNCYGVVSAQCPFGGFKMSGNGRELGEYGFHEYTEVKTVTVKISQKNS
Excerpt: (§1) All five fluorescent compounds were firstly characterized for their solubility in physiological buffer and for their absorbance values. We then performed a 3D analysis using a TECAN SPARK to simultaneously evaluate the excitation and the emission wavelengths, that were supposed to be similar to the curcumin ones[48]. […] For these reasons, we decided to continue the biochemical characterization on Probe 10 and 11 using the selected parameters (Fig. 2). The fluorescent signal changes for both molecules upon binding to the target, were firstly evaluated with recombinant human ALDH1A3. […] To better characterized our fluorescent compounds, we tested their potential cross-reactivity toward the other two isoforms of the ALDH1A subfamily. […] In addition, a wide range of biologically relevant analytes were tested at a concentration of 100 μM in complex with a fixed concentration of 10 μM of the probe (either probe 10 or probe 11), to make sure that no potential off-target signals could affect the analysis. More specifically, we checked if there were abnormal fluorescence signals that could have been contributed by the presence of biologically relevant compounds, (e.g., biologically relevant amino acids), to buffers and molecules commonly used in experimental procedures.
(§2) Based on the values obtained by the 3D analysis, a wide series of biomolecules directly used in the biochemical experiment, both in vitro and in vivo, and listed in Table 1, were tested in complex with a fixed concentration of 10 μM of both probes, to measure any possible cross reaction signal.

ALDH1A3 [2] = biological target: T2, ALDH1A3 (Homo sapiens, UniProt P47895); assay: as above; format: binding; conditions: probe 10 μM; for probe fluorescence intensity (normalized): ALDH1A3 100 μM; for increase in the intensity of the fluorescent signal on addition of ALDH1A3: vs probe alone
T2 construct: E. coli BL21 (DE3) were transformed with the full-length expression vector of each isoform; His-tag; made in house; host or cells: E. coli BL21 (DE3)
T2 sequence (P47895 1-512): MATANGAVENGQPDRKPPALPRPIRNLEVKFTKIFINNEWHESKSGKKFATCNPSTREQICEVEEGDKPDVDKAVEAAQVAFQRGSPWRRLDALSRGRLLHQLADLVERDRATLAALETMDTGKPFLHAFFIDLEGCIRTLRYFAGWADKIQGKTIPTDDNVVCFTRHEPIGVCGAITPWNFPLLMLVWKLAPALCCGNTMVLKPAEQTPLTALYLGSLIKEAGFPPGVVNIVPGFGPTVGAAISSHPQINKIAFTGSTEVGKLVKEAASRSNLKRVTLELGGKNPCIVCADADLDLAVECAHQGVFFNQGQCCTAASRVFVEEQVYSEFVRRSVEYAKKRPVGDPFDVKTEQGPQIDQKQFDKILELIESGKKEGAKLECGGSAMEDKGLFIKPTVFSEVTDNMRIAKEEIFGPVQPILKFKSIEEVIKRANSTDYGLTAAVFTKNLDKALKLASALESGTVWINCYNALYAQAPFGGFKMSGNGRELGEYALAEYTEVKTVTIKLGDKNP
Excerpt: as §1, §2

[3] = Solubility in physiological buffer; format: physicochemical; conditions: among all five molecules
Excerpt: as §1

ALDH1A1 [4] = biological target: T1, ALDH1A1; assay: LC-HRMS analysis of isoenzyme activity in presence of probe; format: biochemical; conditions: 1 h incubation, LC-HRMS
Experimental: (§3) These analyses were carried out by using UPLC-HRMS procedure with Vanquish UPLC system coupled to a Thermo Scientific Q-Exactive Plus, operating in negative electrospray ionization mode. The chromatographic separation was carried out using a Phenomenex Synergi 4 µ Polar-RP 80 A (150 × 2 mm) equipped with a Phenomenex Polar-RP (4 mm × 2 mm) security guard column. The mobile phase consisted of A: acetonitrile 0.1% formic acid and B: 0.1% formic acid. We used a linear elution gradient, starting from 80% of A to 5% A in 3 min, 3 min at 5% A, an equilibration of 4 min for a total run time of 10.00 min, at 300 µl/min flow rate. The autosampler temperature was set at 15 °C, the injection volume was 5 µl and column was maintained at 40 °C. The heated electrospray ionization source was used, with a spray voltage of […], with a capillary temperature of 300 °C, a heater temperature of 350 °C, a sheat gas flow of 45 arbitrary units (AU), an auxiliary gas flow of 10 AU and a sweep gas flow of 0 AU. During the Parallel Reaction Monitoring acquisition in negative ion mode, the instrument operated at 17,500 resolution in presence of the inclusion list (m/z = 596.20384 and m/z = 612.19875 for Probe 10 and Probe 10-COOH respectively; m/z = 534.18819 and m/z = 506.156888 for Probe 11 and Probe 11-COOH respectively) with an automatic gain control target of 2 × 10^5 charges and a maximum injection time of 100 ms. Before injecting the samples, the blanks in the list were analyzed and every biological sample was analyzed in duplicate. The biological samples analyzed were as follow: (1) Enzymatic assay Buffer; (2) Enzymatic assay Buffer + NAD^+; (3) Enzymatic assay Buffer + Probe 10 or Probe 11; (4) Enzymatic assay Buffer + ALDH1A1; (5) Enzymatic assay Buffer + ALDH1A2; (6) Enzymatic assay Buffer + ALDH1A3; (7) Enzymatic assay Buffer + ALDH1A1 + Probe 10 or Probe 11; (8) Enzymatic assay Buffer + ALDH1A2 + Probe 10 or Probe 11; (9) Enzymatic assay Buffer + ALDH1A3 + Probe 10 or Probe 11. All samples were diluted 1:1 with ACN, then 1:100 in ACN-Water 1:1 prior the LC-HRMS analysis.

ALDH1A3 [5] = biological target: T2, ALDH1A3; assay: as above; format: biochemical; conditions: for oxidation of probe to carboxylic derivative / substrate behaviour: 1 h incubation, LC-HRMS
Experimental: as §3

| Compound | probe fluorescence intensity (normalized) (ALDH1A1 [1]; listed as probe B) | reduction of the fluorescence signal with ALDH1A1 compared to ALDH1A3 (ALDH1A1 [1]) | probe fluorescence intensity (normalized) (ALDH1A3 [2]; listed as probe B) | increase in the intensity of the fluorescent signal on addition of ALDH1A3 (ALDH1A3 [2]) | solubility in physiological buffer [3] | oxidation of probe to carboxylic derivative / substrate behaviour (ALDH1A1 [4]) | oxidation of probe to carboxylic derivative / substrate behaviour (ALDH1A3 [5]) | AREA TIC of Probe 10 (ALDH1A3 [5]; ALDH1A3, 1 h) | probe fluorescence intensity (normalized) (ALDH1A1 [1]; listed as probe A) | probe fluorescence intensity (normalized) (ALDH1A3 [2]; listed as probe A) |
| --- | --- | --- | --- | --- | --- | --- | --- | --- | --- | --- |
| COc1cc(/C=C/C(O)=C/C(=O)/C=C/c2ccc(OCc3cn(CCOc4ccc(C=O)cc4)nn3)c(OC)c2)ccc1O [Probe 10] | 2.886 and 2.75 and 2.685 | about 2 folds | 11.108 and 11.7869 and 9.709 | about 12 folds | highest solubility | fully metabolized | no oxidation could be detected | 17952906 and 17991269 and 13247597 and 14014206 | – | – |
| CCOC(=O)Cn1cc(COc2ccc(/C=C/C(=O)/C=C(O)/C=C/c3ccc(O)c(OC)c3)cc2OC)nn1 [Probe 11] | – | 4 folds | – | ~8 folds | highest solubility | has not been shown to be a substrate | has not been shown to be a substrate | – | 4.322 and 4.415 and 4.4337 | 7.871 and 7.494 and 8.003 |
